In patent US10065943B2, “Pyrrolidine derivatives as angiotensin II type 2 antagonists” (NOVARTIS AG, priority 2015, dated 2018):

Biological target: T1, human AT2 receptor (Homo sapiens, UniProt P50052)
T1 construct: membranes prepared in house
T1 sequence (P50052 1-363): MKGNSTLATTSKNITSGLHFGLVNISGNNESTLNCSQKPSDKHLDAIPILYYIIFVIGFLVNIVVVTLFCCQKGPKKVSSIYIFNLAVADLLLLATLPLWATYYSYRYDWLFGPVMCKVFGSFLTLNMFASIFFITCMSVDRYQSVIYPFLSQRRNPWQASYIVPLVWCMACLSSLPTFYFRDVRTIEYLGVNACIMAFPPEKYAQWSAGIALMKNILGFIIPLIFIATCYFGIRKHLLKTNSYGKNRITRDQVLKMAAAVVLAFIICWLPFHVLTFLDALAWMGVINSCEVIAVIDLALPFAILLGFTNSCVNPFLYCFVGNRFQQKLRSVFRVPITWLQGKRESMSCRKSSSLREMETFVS
Assay: AT2 receptor binding ([125I]CGP 42112A displacement, CHO-K1 membranes)
Conditions: [125I]CGP 42112A 0.05 nM, membranes of CHO-K1 cells expressing human AT2 receptor; Ki from IC50 by Cheng-Prussoff equation; read-out: Ki
Text: Reagents were purchased from Sigma-Aldrich, unless otherwise specified. Dialyzed fetal bovine serum (FBS) was from Life Technologies (cat. no. 10073772). Valiscreen® human angiotensin AT2 receptor cell line (cat. no. ES-070-C), [^125I]CGP 42112A (cat. no. NEX324025UC) and MicroScint™ 40 (cat. no. 6013641) were purchased from PerkinElmer. CGP 42112A (cat. no. 2569) and PD 123,319 ditrifluoroacetate (cat. no. 1361) were from Tocris Biosciences.
• 1. Growth medium • EX-CELL® CHO DHFR^− medium • 10% FBS, dialysed • 1 mM sodium pyruvate • 2 mM L-glutamine • 2. Harvesting buffer • PBS • 2 mM EDTA • 3. Suspension buffer • 50 mM Tris-HCl, pH 7.4 • 10 mM EDTA • 4. Resuspension buffer • 50 mM Tris-HCl, pH 7.4 • 0.1 mM EDTA • 0.1% sucrose • 5. Binding assay buffer • 50 mM Tris-HCl, pH 7.4 • 5 mM MgCl2 • 1 mM EDTA • 0.1% gelatin • 6. Wash buffer • 50 mM Tris-HCl, pH 7.4 Procedure for Membrane Preparation • Valiscreen® CHO-K1 cells stably expressing the human AT2 receptor were cultured in growth medium. • Cells were seeded into T-175 flasks and grown to 70-80% confluence. • Medium was removed from confluent flasks and cells were washed with warm PBS. • Cells were harvested by incubating with harvesting buffer for 10 min at 37° C., and then transferred to a centrifuge tube on ice. • Cells were centrifuged at 200 g for 5 min at 4° C. • Cell pellets were homogenised in ice-cold suspension buffer. • Homogenates were centrifuged at 40,000 g for 15 min at 4° C. • Pellets were resuspended in ice-cold resuspension buffer and centrifuged at 40,000 g for 15 min at 4° C. • Final pellets were homogenised in ice-cold resuspension buffer. • Protein concentrations were determined by BCA assay method with BSA as standard. Compound Preparation
Compounds were prepared from 10 mM stock solutions in 100% DMSO. Dilutions were made using electronic multichannel pipettes.
• Compounds dilutions were prepared in 100% DMSO at 100× final assay concentration. • Compounds were diluted in 100% DMSO to the appropriate maximal concentration. • 30 μL compound was added to row A. • 21.6 μL of 100% DMSO was added to rows B-H. • Transfer 10 μL from row A into row B (half log dilution). • Transfer 10 μL from row B into row C (half log dilution). • Transfer 10 μL from row C into row D (half log dilution). • Transfer 10 μL from row D into row E (half log dilution). • Transfer 10 μL from row E into row F (half log dilution). • Transfer 10 μL from row F into row G (half log dilution). • Transfer 10 μL from row G into row H (half log dilution). Working Plate Preparation (96-Well Plate) • Compounds were diluted 10-fold in assay buffer. • 10 μL compound solution from dose plate was transferred to corresponding well of working plate. • 90 μL assay buffer was added to the wells of working plate. • Working solutions contained 10% DMSO in assay buffer (1% DMSO final assay concentration). Controls • Total binding (high control) was determined in the absence of unlabelled ligand. A solution of 10% DMSO in assay buffer was prepared. • Non-specific binding (low control) was determined in the presence of a vast excess (10 μM) of PD 123,319. 1 mM stock solution of PD 123,319 in water was diluted 10-fold with 10% DMSO in assay buffer. Assay Plate Preparation (96-Well Plate)
15 μL compound solution was transferred to duplicate wells of assay plate. 5 compounds were tested per plate. 15 μL control solutions were transferred to columns 1 and 12 of assay plate.

Structure (SMILES)	Ki [nM]
Cc1ccc2c(c1)N([C@H]1C[C@@H](C(=O)O)N(C(=O)C(c3ccccc3)c3ccccc3)C1)CCCC2 [Compound 3, (2S,4S)-1-(2,2-Diphenylacetyl)-4-(8-methyl-2,3,4,5-tetrahydro-1H-benzo[b]azepin-1-yl)pyrrolidine-2-carboxylic acid]	34
O=C(O)[C@@H]1C[C@@H](N2CCCOc3cc(F)c(F)cc32)CN1C(=O)C(c1ccccc1)c1ccccc1 [Compound 24, (2S,4R)-4-(7,8-Difluoro-3,4-dihydrobenzo[b][1,4]oxazepin-5(2H)-yl)-1-(2,2-diphenylacetyl)pyrrolidine-2-carboxylic acid]	1.4
O=C(O)[C@@H]1C[C@H](N2CCOc3ccccc3C2)CN1C(=O)C(c1ccccc1)c1ccccc1 [Compound 19, (2S,4S)-4-(2,3-Dihydrobenzo[f][1,4]oxazepin-4(5H)-yl)-1-(2,2-diphenylacetyl)pyrrolidine-2-carboxylic acid]	99
O=C(O)[C@@H]1C[C@H](N2CCCOc3cc(F)ccc32)CN1C(=O)C(c1ccccc1)c1ccccc1 [Compound 9, (2S,4S)-1-(2,2-diphenylacetyl)-4-(8-fluoro-3,4-dihydrobenzo[b][1,4]oxazepin-5(2H)-yl)pyrrolidine-2-carboxylic acid]	3.1
CN1CCN([C@H]2C[C@@H](C(=O)O)N(C(=O)C(c3ccccc3)c3ccccc3)C2)Cc2ccccc21 [Compound 17, (2S,4S)-1-(2,2-Diphenylacetyl)-4-(1-methyl-1,2,3,5-tetrahydro-4H-benzo[e][1,4]diazepin-4-yl)pyrrolidine-2-carboxylic acid]	178
O=C(O)[C@@H]1C[C@H](N2CCCOc3cc(F)c(F)cc32)CN1C(=O)C(c1ccccc1)c1ccccc1 [Compound 21, (2S,4S)-4-(7,8-difluoro-3,4-dihydrobenzo[b][1,4]oxazepin-5(2H)-yl)-1-(2,2-diphenylacetyl)pyrrolidine-2-carboxylic acid]	2.3
C[C@@]1(C(=O)O)C[C@H](N2CCCCc3cc(F)c(F)cc32)CN1C(=O)C(c1ccccc1)c1ccccc1 [Compound 31, (2S,4S)-4-(7,8-Difluoro-2,3,4,5-tetrahydro-1H-benzo[b]azepin-1-yl)-1-(2,2-diphenylacetyl)-2-methylpyrrolidine-2-carboxylic acid]	11.8
O=C(O)[C@@H]1C[C@H](N2CCCCc3ccc(F)cc32)CN1C(=O)C(c1ccccc1)c1ccccc1 [Compound 2, (2S,4S)-1-(2,2-Diphenylacetyl)-4-(8-fluoro-2,3,4,5-tetrahydro-1H-benzo[b]azepin-1-yl)pyrrolidine-2-carboxylic acid]	4.7
CN(C)S(=O)(=O)NC(=O)[C@@H]1C[C@H](N2CCCCc3ccccc32)CN1C(=O)C(c1ccccc1)c1ccccc1 [Compound 44, (2S,4S)—N—(N,N-Dimethylsulfamoyl)-1-(2,2-diphenylacetyl)-4-(2,3,4,5-tetrahydro-1H-benzo[b]azepin-1-yl)pyrrolidine-2-carboxamide]	16.9
O=C(NS(=O)(=O)C1CC1)[C@@H]1C[C@H](N2CCCCc3ccccc32)CN1C(=O)C(c1ccccc1)c1ccccc1 [Compound 43, (2S,4S)—N-(Cyclopropylsulfonyl)-1-(2,2-diphenylacetyl)-4-(2,3,4,5-tetrahydro-1H-benzo[b]azepin-1-yl)pyrrolidine-2-carboxamide]	8.6
O=C(O)[C@@H]1C[C@H](N2CCCCc3ccccc32)CN1C(=O)C(c1ccccc1)c1ccccc1 [Compound 1, (2S,4S)-1-(2,2-Diphenylacetyl)-4-(2,3,4,5-tetrahydro-1H-benzo[b]azepin-1-yl)pyrrolidine-2-carboxylic acid]	2.7
O=C(O)[C@@H]1C[C@H](N2CCCCc3cc(Cl)ccc32)CN1C(=O)C(c1ccccc1)c1ccccc1 [Compound 6, (2S,4S)-4-(7-Chloro-2,3,4,5-tetrahydro-1H-benzo[b]azepin-1-yl)-1-(2,2-diphenylacetyl)pyrrolidine-2-carboxylic acid]	22.8
O=C(O)[C@@H]1C[C@H](N2CCCc3ccccc3C2)CN1C(=O)C(c1ccccc1)c1ccccc1 [Compound 18, (2S,4S)-1-(2,2-Diphenylacetyl)-4-(1,3,4,5-tetrahydro-2H-benzo[c]azepin-2-yl)pyrrolidine-2-carboxylic acid]	79.7
O=C(O)[C@@H]1C[C@@H](N2CCCOc3ccccc32)CN1C(=O)C(c1ccccc1)c1ccccc1 [Compound 26, (2S,4R)-4-(3,4-Dihydrobenzo[b][1,4]oxazepin-5(2H)-yl)-1-(2,2-diphenylacetyl)pyrrolidine-2-carboxylic acid]	4.1
O=C(NS(=O)(=O)C1CC1)[C@@H]1C[C@H](N2CCCOc3ccc(F)cc32)CN1C(=O)C(c1ccccc1)c1ccccc1 [Compound 37, (2S,4S)—N-(Cyclopropylsulfonyl)-1-(2,2-diphenylacetyl)-4-(7-fluoro-3,4-dihydrobenzo[b][1,4]oxazepin-5(2H)-yl)pyrrolidine-2-carboxamide]	4.1
O=C(O)[C@@H]1C[C@H](N2CCCOc3ccc(F)cc32)CN1C(=O)C(c1ccccc1)c1ccccc1 [Compound 8, (2S,4S)-1-(2,2-Diphenylacetyl)-4-(7-fluoro-3,4-dihydrobenzo[b][1,4]oxazepin-5(2H)-yl)pyrrolidine-2-carboxylic acid]	1.4
O=C(O)[C@@H]1C[C@H](N2CCCCc3cc(F)ccc32)CN1C(=O)C(c1ccccc1)c1ccccc1 [Compound 5, (2S,4S)-1-(2,2-Diphenylacetyl)-4-(7-fluoro-2,3,4,5-tetrahydro-1H-benzo[b]azepin-1-yl)pyrrolidine-2-carboxylic acid]	9.8
O=C(O)[C@@H]1C[C@@H](N2CCCCc3ccncc32)CN1C(=O)C(c1ccccc1)c1ccccc1 [Compound 28, (2S,4R)-1-(2,2-Diphenylacetyl)-4-(2,3,4,5-tetrahydro-1H-pyrido[3,4-b]azepin-1-yl)pyrrolidine-2-carboxylic acid]	33
O=C(O)[C@@H]1C[C@H](N2CCCc3ccccc32)CN1C(=O)C(c1ccccc1)c1ccccc1 [Compound 14, (2S,4S)-4-(3,4-Dihydroquinolin-1(2H)-yl)-1-(2,2-diphenylacetyl)pyrrolidine-2-carboxylic acid]	23.8
O=C(O)[C@@H]1C[C@H](N2CCCCCc3ccccc32)CN1C(=O)C(c1ccccc1)c1ccccc1 [Compound 13, (2S,4S)-1-(2,2-Diphenylacetyl)-4-(3,4,5,6-tetrahydrobenzo[b]azocin-1(2H)-yl)pyrrolidine-2-carboxylic acid]	8.7
O=C(NS(=O)(=O)C1CC1)[C@@H]1C[C@H](N2CCCOc3cc(F)ccc32)CN1C(=O)C(c1ccccc1)c1ccccc1 [Compound 38, (2S,4S)—N-(Cyclopropylsulfonyl)-1-(2,2-diphenylacetyl)-4-(8-fluoro-3,4-dihydrobenzo[b][1,4]oxazepin-5(2H)-yl)pyrrolidine-2-carboxamide]	6
O=C(O)[C@@H]1C[C@H](N2CCCCc3sccc32)CN1C(=O)C(c1ccccc1)c1ccccc1 [Compound 11, (2S,4S)-1-(2,2-Diphenylacetyl)-4-(5,6,7,8-tetrahydro-4H-thieno[3,2-b]azepin-4-yl)pyrrolidine-2-carboxylic acid]	4.9
